From ChEMBL document CHEMBL2380247, “Synthesis and biological evaluation of novel aliphatic amido-quaternary ammonium salts for anticancer chemotherapy: part II” (2013)
Active and inactive are the calls of the source. The calls are words filed in the database; no cut-off is given here.

Experiments:
[1] = test system: MDA-MB-231; assay: Antiproliferative activity against human MDA-MB-231 cells at 1 uM by SRB assay; assay type: functional
[2] = test system: MDA-MB-231; assay: Antiproliferative activity against human MDA-MB-231 cells at 0.1 uM by SRB assay; assay type: functional
[3] = test system: NCI-H23; assay: Antiproliferative activity against human NCI-H23 cells by SRB assay; assay type: functional
[4] = test system: ACHN; assay: Antiproliferative activity against human ACHN cells at 1 uM by SRB assay; assay type: functional
[5] = target: Rho-related GTP-binding protein RhoB (Homo sapiens) (UniProt P62745); assay: Transactivation of RhoB in human HeLa cells by luciferase reporter assay; assay type: cell-based
Chain of Rho-related GTP-binding protein RhoB (Homo sapiens) (P62745 whole entry): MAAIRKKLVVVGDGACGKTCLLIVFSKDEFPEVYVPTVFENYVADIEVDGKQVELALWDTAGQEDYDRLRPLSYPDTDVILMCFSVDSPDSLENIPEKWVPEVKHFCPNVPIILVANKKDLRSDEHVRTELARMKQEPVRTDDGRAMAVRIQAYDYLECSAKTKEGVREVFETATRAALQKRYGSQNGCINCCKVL

[6] = test system: NUGC-3; assay: Antiproliferative activity against human NUGC3 cells by SRB assay; assay type: functional
[7] = test system: MDA-MB-231; assay: Antiproliferative activity against human MDA-MB-231 cells at 10 uM by SRB assay; assay type: functional
[8] = test system: ACHN; assay: Antiproliferative activity against human ACHN cells by SRB assay; assay type: functional
[9] = test system: HCT-15; assay: Antiproliferative activity against human HCT15 cells at 10 uM by SRB assay; assay type: functional
[10] = test system: ACHN; assay: Antiproliferative activity against human ACHN cells at 0.3 uM by SRB assay; assay type: functional
[11] = test system: HCT-15; assay: Antiproliferative activity against human HCT15 cells at 0.1 uM by SRB assay; assay type: functional
[12] = test system: ACHN; assay: Antiproliferative activity against human ACHN cells at 3 uM by SRB assay; assay type: functional
[13] = test system: NCI-H23; assay: Antiproliferative activity against human NCI-H23 cells at 1 uM by SRB assay; assay type: functional
[14] = test system: HCT-15; assay: Antiproliferative activity against human HCT15 cells by SRB assay; assay type: functional
[15] = test system: NCI-H23; assay: Antiproliferative activity against human NCI-H23 cells at 0.1 uM by SRB assay; assay type: functional
[16] = test system: MDA-MB-231; assay: Antiproliferative activity against human MDA-MB-231 cells at 3 uM by SRB assay; assay type: functional
[17] = test system: NCI-H23; assay: Antiproliferative activity against human NCI-H23 cells at 3 uM by SRB assay; assay type: functional
[18] = test system: PC-3; assay: Antiproliferative activity against human PC3 cells at 0.3 uM by SRB assay; assay type: functional
[19] = test system: NUGC-3; assay: Antiproliferative activity against human NUGC3 cells at 0.3 uM by SRB assay; assay type: functional
[20] = test system: NCI-H23; assay: Antiproliferative activity against human NCI-H23 cells at 0.3 uM by SRB assay; assay type: functional
[21] = test system: HCT-15; assay: Antiproliferative activity against human HCT15 cells at 3 uM by SRB assay; assay type: functional
[22] = test system: PC-3; assay: Antiproliferative activity against human PC3 cells at 0.1 uM by SRB assay; assay type: functional
[23] = test system: PC-3; assay: Antiproliferative activity against human PC3 cells at 3 uM by SRB assay; assay type: functional
[24] = test system: NUGC-3; assay: Antiproliferative activity against human NUGC3 cells at 10 uM by SRB assay; assay type: functional
[25] = test system: ACHN; assay: Antiproliferative activity against human ACHN cells at 0.1 uM by SRB assay; assay type: functional
[26] = test system: NCI-H23; assay: Antiproliferative activity against human NCI-H23 cells at 10 uM by SRB assay; assay type: functional
[27] = test system: PC-3; assay: Antiproliferative activity against human PC3 cells by SRB assay; assay type: functional
[28] = test system: HCT-15; assay: Antiproliferative activity against human HCT15 cells at 0.3 uM by SRB assay; assay type: functional
[29] = test system: MDA-MB-231; assay: Antiproliferative activity against human MDA-MB-231 cells at 0.3 uM by SRB assay; assay type: functional
[30] = test system: NUGC-3; assay: Antiproliferative activity against human NUGC3 cells at 1 uM by SRB assay; assay type: functional
[31] = test system: NUGC-3; assay: Antiproliferative activity against human NUGC3 cells at 3 uM by SRB assay; assay type: functional
[32] = test system: MDA-MB-231; assay: Antiproliferative activity against human MDA-MB-231 cells by SRB assay; assay type: functional
[33] = test system: ACHN; assay: Antiproliferative activity against human ACHN cells at 10 uM by SRB assay; assay type: functional
[34] = test system: HCT-15; assay: Antiproliferative activity against human HCT15 cells at 1 uM by SRB assay; assay type: functional
[35] = test system: NUGC-3; assay: Antiproliferative activity against human NUGC3 cells at 0.1 uM by SRB assay; assay type: functional
[36] = test system: PC-3; assay: Antiproliferative activity against human PC3 cells at 1 uM by SRB assay; assay type: functional
[37] = test system: PC-3; assay: Antiproliferative activity against human PC3 cells at 10 uM by SRB assay; assay type: functional

SMILES | growth, % of control at 1 µM [1] [%] | growth, % of control at 0.1 µM [2] [%] | GI50 [3] [nM] | growth, % of control at 1 µM [4] [%] | Activity [5] | GI50 [6] [nM] | growth, % of control at 10 µM [7] [%] | GI50 [8] [nM] | growth, % of control at 10 µM [9] [%] | growth, % of control at 0.3 µM [10] [%] | growth, % of control at 0.1 µM [11] [%] | growth, % of control at 3 µM [12] [%] | growth, % of control at 1 µM [13] [%] | GI50 [14] [nM] | growth, % of control at 0.1 µM [15] [%] | growth, % of control at 3 µM [16] [%] | growth, % of control at 3 µM [17] [%] | growth, % of control at 0.3 µM [18] [%] | growth, % of control at 0.3 µM [19] [%] | growth, % of control at 0.3 µM [20] [%] | other results
CCCCCCCCCCCCCCCC(=O)N(C)CCC[N+](C)(C)C | 76.6 | 97.7 | 960 | 58.9 | Active | 190 | 21.7 | 760 | 29.6 | 86.8 | 98.7 | 39.5 | 76.5 | 1980 | 98.7 | 46.6 | 33.7 | 108 | 68 | 99.2 | growth, % of control at 3 µM [21]: 54%; growth, % of control at 0.1 µM [22]: 106%; growth, % of control at 3 µM [23]: 0.07%; growth, % of control at 10 µM [24]: -38.4%; growth, % of control at 0.1 µM [25]: 91.6%; growth, % of control at 10 µM [26]: -14.1%; GI50 [27]: 490 nM; growth, % of control at 0.3 µM [28]: 99.1%; growth, % of control at 0.3 µM [29]: 96.1%; growth, % of control at 1 µM [30]: 4.68%; growth, % of control at 3 µM [31]: -31.9%; GI50 [32]: 1420 nM; growth, % of control at 10 µM [33]: 1.49%; growth, % of control at 1 µM [34]: 82.7%; growth, % of control at 0.1 µM [35]: 97%; growth, % of control at 1 µM [36]: 47.2%; growth, % of control at 10 µM [37]: -16.5%
CCCCCCCCCCCCCCCC(=O)NCCC[N+](C)(C)C | 96.6 | 101 | 2150 | 91.8 | Active | 1070 | 25.1 | 3360 | 26.1 | 94.4 | 110 | 66 | 93 | 2560 | 106 | 61.6 | 67.8 | 85.2 | 109 | 104 | growth, % of control at 3 µM [21]: 71.1%; growth, % of control at 0.1 µM [22]: 90.6%; growth, % of control at 3 µM [23]: 19.1%; growth, % of control at 10 µM [24]: 20.1%; growth, % of control at 0.1 µM [25]: 97%; growth, % of control at 10 µM [26]: 18.3%; GI50 [27]: 600 nM; growth, % of control at 0.3 µM [28]: 104%; growth, % of control at 0.3 µM [29]: 98.3%; growth, % of control at 1 µM [30]: 72.8%; growth, % of control at 3 µM [31]: 34.9%; GI50 [32]: 2180 nM; growth, % of control at 10 µM [33]: 42.5%; growth, % of control at 1 µM [34]: 97.4%; growth, % of control at 0.1 µM [35]: 112%; growth, % of control at 1 µM [36]: 62.6%; growth, % of control at 10 µM [37]: -1.77%
CCCCCCCCCCCCCCCC(=O)N(C)CC[N+](C)(C)C | 81.6 | 106 | 1540 | 42 | Active | 170 | -1.2 | 450 | 15.8 | 85.9 | 99.9 | 31.9 | 83.7 | 1310 | 101 | 41.4 | 58 | 87.9 | 57.7 | 102 | growth, % of control at 3 µM [21]: 45.2%; growth, % of control at 0.1 µM [22]: 96%; growth, % of control at 3 µM [23]: 3.5%; growth, % of control at 10 µM [24]: -19.4%; growth, % of control at 0.1 µM [25]: 87.9%; growth, % of control at 10 µM [26]: 0%; GI50 [27]: 370 nM; growth, % of control at 0.3 µM [28]: 102%; growth, % of control at 0.3 µM [29]: 100%; growth, % of control at 1 µM [30]: 26.8%; growth, % of control at 3 µM [31]: -0.9%; GI50 [32]: 1140 nM; growth, % of control at 10 µM [33]: -19.1%; growth, % of control at 1 µM [34]: 79.6%; growth, % of control at 0.1 µM [35]: 77.8%; growth, % of control at 1 µM [36]: 37.3%; growth, % of control at 10 µM [37]: -15.8%
CCCCCCCCCCCCCC(=O)N(C)CC[N+](C)(C)C | 74.2 | 98.5 | 920 | 34.4 | Active | 220 | 5.2 | 260 | 19.2 | 73.3 | 91 | 9.6 | 79.7 | 1470 | 99.8 | 26.6 | 36.1 | 96.4 | 70.9 | 80.1 | growth, % of control at 3 µM [21]: 53.1%; growth, % of control at 0.1 µM [22]: 96.6%; growth, % of control at 3 µM [23]: -4.8%; growth, % of control at 10 µM [24]: -11.9%; growth, % of control at 0.1 µM [25]: 84.4%; growth, % of control at 10 µM [26]: 4.1%; GI50 [27]: 410 nM; growth, % of control at 0.3 µM [28]: 90.4%; growth, % of control at 0.3 µM [29]: 94.7%; growth, % of control at 1 µM [30]: 22.5%; growth, % of control at 3 µM [31]: -3.9%; GI50 [32]: 800 nM; growth, % of control at 10 µM [33]: -15.9%; growth, % of control at 1 µM [34]: 82.4%; growth, % of control at 0.1 µM [35]: 100%; growth, % of control at 1 µM [36]: 38.4%; growth, % of control at 10 µM [37]: -21.7%
